How the values were obtained:
Canis familiaris [1] = assay: Maximum percent inhibition of acid output in penta gastrin-stimulated Heidenhain pouch dogs at a dose of 10 mg/kg, given intravenously (iv).; type: functional; details: Canis lupus familiaris
Canis familiaris [2] = assay: Effective dose on oral administration was evaluated for the inhibition of acid output in penta gastrin stimulated Heidenhain pouch dogs; type: functional; details: Canis lupus familiaris
Canis familiaris [3] = assay: Maximum percent inhibition of acid output in penta gastrin-stimulated Heidenhain pouch dogs at a dose of 5 mg/kg, given intravenously (iv).; type: functional; details: Canis lupus familiaris
Canis familiaris [4] = assay: Maximum percent inhibition of acid output in penta gastrin-stimulated Heidenhain pouch dogs at a dose of 1 mg/kg, given intravenously (iv).; type: functional; details: Canis lupus familiaris
[5] = molecular target: Histamine H2 receptor (Cavia porcellus) (UniProt P47747); assay: Histamine H2 receptor antagonistic activity was evaluated in guinea pig atrium.; type: functional, tissue-based; details: Cardiac atrium
Canis familiaris [6] = assay: Maximum percent inhibition of acid output in penta gastrin-stimulated Heidenhain pouch dogs at a dose of 7 mg/kg, given intravenously (iv).; type: functional; details: Canis lupus familiaris
Canis familiaris [7] = assay: Maximum percent inhibition of acid output in penta gastrin-stimulated Heidenhain pouch dogs at a dose of 0.5 mg/kg, given intravenously (iv).; type: functional; details: Canis lupus familiaris
Canis familiaris [8] = assay: Effective dose on intravenous administration was evaluated for the inhibition of acid output in penta gastrin stimulated Heidenhain pouch dogs; type: functional; details: Canis lupus familiaris

Chain of Histamine H2 receptor (Cavia porcellus) (P47747 whole entry): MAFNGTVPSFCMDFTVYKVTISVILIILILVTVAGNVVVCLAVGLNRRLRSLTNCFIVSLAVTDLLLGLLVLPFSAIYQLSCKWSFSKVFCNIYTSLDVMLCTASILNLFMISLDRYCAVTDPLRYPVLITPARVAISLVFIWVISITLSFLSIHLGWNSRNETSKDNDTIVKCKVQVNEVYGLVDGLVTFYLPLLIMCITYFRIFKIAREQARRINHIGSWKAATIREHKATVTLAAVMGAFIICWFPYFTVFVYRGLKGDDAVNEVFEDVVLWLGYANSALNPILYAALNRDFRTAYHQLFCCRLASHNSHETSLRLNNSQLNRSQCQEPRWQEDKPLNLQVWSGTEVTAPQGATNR

Q: CN/C(=N\CCSCc1nc[nH]c1C)NC#N [CIMETIDINE] was tested. Which inhibition in vivo at 10 mg/kg (Canis familiaris [1]) did it give?
A: 1.02%

Q: And the ED50 (Canis familiaris [2])?
A: 1.32 mg/kg

Q: How did the inhibition in vivo at 5 mg/kg (Canis familiaris [3]) turn out when CCNc1cc(-c2c[nH]c(C/N=C(\NC)NC#N)n2)ccn1 was run?
A: 32%

Q: How did the inhibition in vivo at 1 mg/kg (Canis familiaris [4]) turn out when N=C(N)Nc1nc(-c2n[nH]c(N)n2)cs1 was run?
A: 58%

Q: With CCNc1cc(-c2n[nH]c(CCCC/N=C(/NC)NC#N)n2)ccn1 as the compound, how does the inhibition in vivo at 10 mg/kg (Canis familiaris [1]) read?
A: 16%

Q: Which results are given for CCNc1cc(-c2n[nH]c(CC/N=C(\S)NC)n2)ccn1?
A: Kb [5]: 690 nM; inhibition in vivo at 1 mg/kg (Canis familiaris [4]): 59%

Q: What does the source list for CCNc1cc(-c2c[nH]c(CC/N=C(\S)NC)n2)ccn1?
A: Kb [5]: 550 nM; inhibition in vivo at 5 mg/kg (Canis familiaris [3]): 47%

Q: Which inhibition in vivo at 1 mg/kg (Canis familiaris [4]) does the source give for N=C(N)Nc1nc(-c2c[nH]cn2)cs1 here?
A: 95%

Q: Which results are given for CCNc1cc(-c2n[nH]c(CC/N=C(/NC)NC#N)n2)ccn1?
A: Kb [5]: 1240 nM; inhibition in vivo at 7 mg/kg (Canis familiaris [6]): 0%

Q: With CCNc1cc(-c2n[nH]c(CCCC/N=C(\S)NC)n2)ccn1 as the compound, how does the inhibition in vivo at 5 mg/kg (Canis familiaris [3]) read?
A: 27%

Q: Which results are given for Cc1ncc(-c2csc(N=C(N)N)n2)[nH]1 [ZALTIDINE]?
A: Kb [5]: 18 nM; inhibition in vivo at 0.5 mg/kg (Canis familiaris [7]): 90%; ED50 (Canis familiaris [2]): 0.27 mg/kg

Q: CNC(=C[N+](=O)[O-])NCCSCc1ccc(CN(C)C)o1 was tested. Which Kb [5] did it give?
A: 166 nM

Q: Which inhibition in vivo at 10 mg/kg (Canis familiaris [1]) does the source give for C/N=C(\S)NCc1cc(-c2n[nH]c(N)n2)ccn1 here?
A: 19%

Q: CCNc1cc(-c2n[nH]c(N)n2)ccn1 was tested. Which ED50 (Canis familiaris [8]) did it give?
A: 0.87 mg/kg

Q: With N=C(N)Nc1nc(-c2c[nH]c(N)n2)cs1 as the compound, how does the inhibition in vivo at 1 mg/kg (Canis familiaris [4]) read?
A: 96%

Q: Which inhibition in vivo at 1 mg/kg (Canis familiaris [4]) does the source give for Cc1n[nH]c(-c2csc(N=C(N)N)n2)n1 here?
A: 50%

Q: CCNc1cc(-c2n[nH]c(CCC/N=C(/S)NC)n2)ccn1 was tested. Which inhibition in vivo at 1 mg/kg (Canis familiaris [4]) did it give?
A: 20%

Q: CCNc1cc(-c2n[nH]c(C/N=C(/S)NC)n2)ccn1 was tested. Which inhibition in vivo at 10 mg/kg (Canis familiaris [1]) did it give?
A: 48%

Q: With CCNc1cc(-c2c[nH]c(C/N=C(/S)NC)n2)ccn1 as the compound, how does the inhibition in vivo at 5 mg/kg (Canis familiaris [3]) read?
A: 54%

Q: With CCNc1cc(-c2n[nH]c(C/N=C(\NC)NC#N)n2)ccn1 as the compound, how does the inhibition in vivo at 10 mg/kg (Canis familiaris [1]) read?
A: 0%
